We go through three compounds from patent US20170016037A1, “Method for Increasing the Solubility of Methionine by Mineral Addition and Acid Treatment” (CJ CHEILJEDANG CORPORATION, priority 2009, published 2017).

The structures appear in SMILES notation. Like-named read-outs stand apart in the source and are kept apart here. Where only a bound is given, the exact number is not on record here.

The conditions of data set [1]: cited from earlier work; for solubility in the aqueous solution: generally.
For data set [2] the following is noted: cited from earlier work.
The conditions of data set [3]: pH 2; cited from earlier work.

As for `CSCC[C@H](N)C(=O)O` [L-methionine], the “solubility in the aqueous solution” value in data set [1] is on record as “about 5 % (w/v)”. Where the note is “L-methionine crystal powder purified to 99% or more from fermentation/enzymatic conversion solution, same manner as Examples 1 to 4”, this compound came in with a methionine solution concentration of at least 50%. In addition, the “solubility of L-methionine” value (L-methionine-containing solution produced by fermentation and enzymatic conversion reaction) is “up to 35%”.
Regarding `CSCC[C@H](N)C(=O)O` (racemic) [methionine], in data set [2] (U.S. Pat. No. 5,430,164, total 3.5 to 3.9 M minerals (3.35 M zinc sulfate, 0.167 to 0.569 M ferric chloride), 1 L), the “maximum methionine solution concentration” value is at most 50%. Besides, the “solubility of methionine in water” value in data set [1] (room temperature, generally known) is 50 to 55 mg/mL. The “methionine solubility maximized by combination of mineral addition and acid addition” value (summary statement, mineral amount less than 15% of the method used before) came to 50%.
Regarding `CSCCC(N)C(=O)O` (racemic) [DL-methionine], the “solubility of DL-methionine with use of mineral” value in data set [2] (U.S. Pat. No. 5,430,164, mineral) is listed as “up to 12 % (w/v)”. Also, the “solubility of DL-methionine with acid treatment” value in data set [3] is 18 % (w/v). Further, the “solubility in the aqueous solution” value in data set [1] is recorded as “about 5 % (w/v)”. In addition, the “result of the same experiment using DL-methionine” value is “identical results” (as Example 1 (manganese sulfide, 0.1 M sulfuric acid; 50% solution), DL-methionine 99% Sigma); “identical results” (as Example 2 (zinc sulfide, 0.1 M sulfuric acid; 50% solution)); “identical results” (as Example 3 (3.75% minerals, 0.1 M sulfuric acid; 50% solution)); “identical results” (as Example 4 (1.88% minerals, 0.1 M sulfuric acid; 50% solution)).
